The results in this text go back to ChEMBL document CHEMBL4373635, “Synthesis of novel vanillin derivatives: novel multi-targeted scaffold ligands against Alzheimer's disease” (Medchemcomm, 2019).

Activity calls are given as the source filed them. The rule behind the calls is not given here.

What is called inhibition is the percentage by which the read-out fell short of the control. A word on the IC50: it is the concentration needed to halve the response being measured.

Series [1] has as its target Amyloid-beta precursor protein (Homo sapiens) (UniProt P05067). The series is described as follows: Inhibition of amyloid beta (1 to 42 ) (unknown origin) self aggregation at 10 uM after 24 hrs by thioflavin-T fluorescence method relative to control.
The nature of series [2]: Antioxidant activity assessed as reduction of ferric-tripyridyltriazine complex by measuring trolox equivalents at pH 3.5 after 30 mins under dark condition by FRAP assay. Format: functional.
Series [3] can be described thus: Antioxidant activity assessed as AAPH radical scavenging activity by measuring trolox equivalents preincubated for 30 mins followed by AAPH addition and measured every 2 mins for 2 hrs by ORAC assay. Format: functional.
For a further series, the target named is Acetylcholinesterase (Electrophorus electricus, UniProt O42275). The experiment in a line: Inhibition of Electrophorus electricus AChE using acetylthiocholine iodide as substrate preincubated for 10 mins followed by substrate addition and measured after 10 mins by Ellman's method. A general note: DTNB colorimetry detects thiols as they appear.
Acetylcholinesterase, sequence (O42275 whole entry): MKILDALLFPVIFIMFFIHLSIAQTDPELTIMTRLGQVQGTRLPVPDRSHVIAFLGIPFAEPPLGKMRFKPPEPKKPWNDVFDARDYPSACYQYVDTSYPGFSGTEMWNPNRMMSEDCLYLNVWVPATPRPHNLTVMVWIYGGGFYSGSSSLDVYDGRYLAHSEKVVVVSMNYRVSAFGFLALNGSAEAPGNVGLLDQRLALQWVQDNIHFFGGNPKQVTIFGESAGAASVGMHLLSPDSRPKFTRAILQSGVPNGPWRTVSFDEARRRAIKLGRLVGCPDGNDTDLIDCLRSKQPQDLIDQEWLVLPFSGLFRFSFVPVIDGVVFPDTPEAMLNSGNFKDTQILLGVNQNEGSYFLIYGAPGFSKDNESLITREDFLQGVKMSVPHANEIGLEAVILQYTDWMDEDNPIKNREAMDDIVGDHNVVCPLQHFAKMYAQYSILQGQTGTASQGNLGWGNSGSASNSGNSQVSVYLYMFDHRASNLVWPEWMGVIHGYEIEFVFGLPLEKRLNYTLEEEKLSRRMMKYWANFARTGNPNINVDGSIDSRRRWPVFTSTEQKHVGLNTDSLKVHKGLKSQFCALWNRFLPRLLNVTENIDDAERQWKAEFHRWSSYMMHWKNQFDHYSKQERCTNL
In series [4] the test system is SH-SY5Y. The series is described as follows: Cytotoxicity against human SH-SY5Y cells assessed as reduction in cell viability after 24 hrs by MTT assay. Format: cell-based. In general terms: Formazan colour is commonly taken as a measure of viable cells.
The test system of series [5] is SH-SY5Y. The series is described as follows: Cytotoxicity against human SH-SY5Y cells assessed as reduction in cell viability at 25 uM after 24 hrs by MTT assay. Format: cell-based.
Series [6] relates to SH-SY5Y. The experiment in a line: Neuroprotective activity against human SH-SY5Y cells assessed as inhibition of H2O2-induced cell death at 1 uM preincubated for 24 hrs followed by H2O2 treatment and measured after 24 hrs by MTT assay. Format: functional, cell-based.
The subject of series [7] is SH-SY5Y. The experiment in a line: Cytotoxicity against human SH-SY5Y cells assessed as cell viability at 5 uM after 24 hrs by MTT assay. It counts as cell-based.
Series [8] has as its system SH-SY5Y. The series is described as follows: Neuroprotective activity against human SH-SY5Y cells assessed as H2O2-induced cell death at 0.01 to 0.1 uM preincubated for 24 hrs followed by H2O2 treatment and measured after 24 hrs by MTT assay. It counts as functional, cell-based.
The subject of series [9] is SH-SY5Y. The experiment in a line: Neuroprotective activity against human SH-SY5Y cells assessed as inhibition of H2O2-induced cell death at 5 uM preincubated for 24 hrs followed by H2O2 treatment and measured after 24 hrs by MTT assay relative to control. Format: functional.
The subject of series [10] is SH-SY5Y. The experiment in a line: Cytotoxicity against human SH-SY5Y cells assessed as cell viability at 12.5 uM after 24 hrs by MTT assay. It counts as cell-based.

Amyloid-beta precursor protein (Homo sapiens), sequence (P05067 whole entry): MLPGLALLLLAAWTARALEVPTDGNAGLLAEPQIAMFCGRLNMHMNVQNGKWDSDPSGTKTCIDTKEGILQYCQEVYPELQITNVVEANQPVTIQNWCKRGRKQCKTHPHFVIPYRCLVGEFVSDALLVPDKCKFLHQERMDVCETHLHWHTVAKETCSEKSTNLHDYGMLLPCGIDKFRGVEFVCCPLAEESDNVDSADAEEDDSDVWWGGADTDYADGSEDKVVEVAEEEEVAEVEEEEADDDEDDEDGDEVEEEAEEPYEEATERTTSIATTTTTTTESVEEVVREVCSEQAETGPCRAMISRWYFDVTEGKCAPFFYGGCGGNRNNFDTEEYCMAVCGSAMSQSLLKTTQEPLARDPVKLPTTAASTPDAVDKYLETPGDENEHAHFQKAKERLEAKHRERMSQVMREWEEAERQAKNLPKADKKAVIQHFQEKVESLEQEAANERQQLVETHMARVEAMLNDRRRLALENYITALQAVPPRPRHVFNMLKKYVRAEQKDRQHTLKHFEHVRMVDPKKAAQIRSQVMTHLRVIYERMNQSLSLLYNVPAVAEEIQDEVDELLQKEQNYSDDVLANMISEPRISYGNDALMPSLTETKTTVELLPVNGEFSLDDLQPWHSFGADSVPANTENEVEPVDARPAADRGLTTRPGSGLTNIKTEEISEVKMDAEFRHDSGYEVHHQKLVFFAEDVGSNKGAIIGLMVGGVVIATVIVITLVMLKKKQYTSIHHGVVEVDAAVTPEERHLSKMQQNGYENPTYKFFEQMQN

Compound `COc1cc(CNCCCN2C(=O)c3cccc4cccc(c34)C2=O)ccc1O` displayed an inhibition in series [1] of 30.4%. Moreover, the Activity was determined as 0.26 equiv in series [2] and 3.9 equiv in [3]. Besides, on Acetylcholinesterase, the half-maximal inhibitory concentration (IC50) is 10.1 µM.

Consider `COc1cc(CNc2ccc(Nc3c4c(nc5ccccc35)CCCC4)cc2)ccc1O`, for which the IC50 in the series with SH-SY5Y [4] was 45.1 µM; against Acetylcholinesterase, 2.13 µM. Moreover, the Activity entry in the series with SH-SY5Y [5] is “Toxic”; in series [2] it was 1.54 equiv; with SH-SY5Y [7], “Non-Toxic”; in [3] it was 6.4 equiv; in the series with SH-SY5Y [10] it was “Non-Toxic”. In [1], this compound yielded an inhibition of 77.1%. Moreover, the outcome in the series on SH-SY5Y [6] was Active. Moreover, the outcome in the series with SH-SY5Y [8] was inactive. The inhibition at 5 µM in the series with SH-SY5Y [9] is 30%.

Take `COc1cc(/C=N/CCCN2C(=O)c3cccc4cccc(c34)C2=O)ccc1O`: the Activity in [2] stood at 0.07 equiv; in [3] it was 2.1 equiv. Also, the IC50 against Acetylcholinesterase is 128 µM.

As for `COc1cc(CNCCCN2C(=O)c3cccc4cccc(c34)C2=O)cc(OC)c1O`, in [1], the inhibition turned out to be 33.2%. Also, the results for the Activity in series [2] and in series [3] were 1.45 equiv and 2 equiv, respectively. Further, 24.3 µM corresponded to half-maximal inhibition on Acetylcholinesterase (IC50).
